Assay results published in PubChem BioAssay AID248 (DTP/NCI, 2004).
Toxic doses and inconclusive results are not listed. Cut-off read from the data, not from the text of the source: active = T/C of 150% or more; inactive = T/C below 125%. Square brackets hold non-standard residues; d marks the D form. Peptide text beside a SMILES is read from it. * marks the point of attachment. ξ: configuration not given here. ξF = NC(Cc1ccccc1)C(=O)O; Cbz = O=C(OCc1ccccc1)*

System: L1210 leukemia ip in BDF1 mice, survival T/C
Assay: NCI In Vivo Anticancer Drug Screen. Data for tumor model L1210 Leukemia (intraperitoneal) in B6D2F1 (BDF1) mice
Settings: endpoint: mean survival time, higher = longer survival
Method in brief: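 Mice bearing the transplanted tumor received compound or vehicle. Survival of the treated group was divided by that of the vehicle-treated control group to give the ratio.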

[1] = dose: 100.0 mg/kg/injection, schedule: Q01DX001 (ip), vehicle: Klucel (hydroxypropylcellulose) (HPC)
[2] = dose: 400.0 mg/kg/injection, schedule: Q01DX001 (ip), vehicle: Klucel (hydroxypropylcellulose) (HPC)
[3] = dose: 100.0 mg/kg/injection, schedule: Q01DX001 (ip), vehicle: carboxymethylcellulose (CMC)
[4] = dose: 200.0 mg/kg/injection, schedule: Q01DX001 (ip), vehicle: carboxymethylcellulose (CMC)
[5] = dose: 400.0 mg/kg/injection, schedule: Q01DX001 (ip), vehicle: carboxymethylcellulose (CMC)
[6] = dose: 100.0 mg/kg/injection, schedule: Q01DX001 (ip), vehicle: saline
[7] = dose: 100.0 mg/kg/injection, schedule: Q01DX009 (ip), vehicle: saline
[8] = dose: 200.0 mg/kg/injection, schedule: Q01DX001 (ip), vehicle: saline
[9] = dose: 200.0 mg/kg/injection, schedule: Q01DX009 (ip), vehicle: saline
[10] = dose: 400.0 mg/kg/injection, schedule: Q01DX001 (ip), vehicle: saline
[11] = dose: 400.0 mg/kg/injection, schedule: Q01DX009 (ip), vehicle: saline
[12] = dose: 100.0 mg/kg/injection, schedule: Q04DX003 (ip), vehicle: saline
[13] = dose: 200.0 mg/kg/injection, schedule: Q04DX003 (ip), vehicle: saline
[14] = dose: 400.0 mg/kg/injection, schedule: Q04DX003 (ip), vehicle: saline
[15] = dose: 50.0 mg/kg/injection, schedule: Q01DX009 (ip), vehicle: saline

Measured: T/C

COC(=O)C(Cc1ccccc1)NC(=O)CNC(=O)CNC(=O)OCc1ccccc1 (stereo not drawn) (Cbz-Gly-Gly-[ξF]-OMe)
inactive: dose: 100.0 mg/kg/injection, schedule: Q04DX003 (ip), vehicle: other 98 % of control | dose: 200.0 mg/kg/injection, schedule: Q04DX003 (ip), vehicle: other 97 % of control | dose: 400.0 mg/kg/injection, schedule: Q04DX003 (ip), vehicle: other 106 % of control

CCCCCCCCCCCCCCOc1ccc(Sc2ccc([N+](=O)[O-])cc2)cc1
inactive: [1] 106 % of control | dose: 200.0 mg/kg/injection, schedule: Q01DX001 (ip), vehicle: Klucel (hydroxypropylcellulose) (HPC) 90 % of control | [2] 89 % of control

CCCCCCCCCCCCCCCc1ccc2c3c(cccc13)C=C2
inactive: [3] 92 % of control | [4] 92 % of control | [5] 90 % of control

CC(C)(C)CCN1C(=O)c2ccccc2C1=O
inactive: [6] 94 % of control | [7] 100 % of control | [8] 92 % of control | [9] 97 % of control | [10] 92 % of control | [11] 97 % of control

C#CC(C)(C)CC
inactive: [7] 111 % of control | [9] 97 % of control | [11] 122 % of control

CN=C(C)C1=C(O)C(CC(=O)OC)N(C)C1=O (stereo unspecified)
inactive: [12] 103 % of control | [13] 102 % of control | [14] 96 % of control

CN(C)C(=S)N(C(=S)N(C)C)c1ccc(Cl)cc1
inactive: [6] 101 % of control | [8] 92 % of control | [10] 97 % of control

CCSN1C(=O)c2ccccc2C1=O
inactive: dose: 25.0 mg/kg/injection, schedule: Q04DX002 (ip), vehicle: Klucel (hydroxypropylcellulose) (HPC) 92 % of control | dose: 50.0 mg/kg/injection, schedule: Q04DX002 (ip), vehicle: Klucel (hydroxypropylcellulose) (HPC) 100 % of control | dose: 100.0 mg/kg/injection, schedule: Q04DX002 (ip), vehicle: Klucel (hydroxypropylcellulose) (HPC) 92 % of control

CC(=O)NC(Cc1ccsc1)(C(=O)O)C(=O)O
inactive: [6] 93 % of control | [8] 98 % of control | [10] 98 % of control

c1ccc(CCC[P+](c2ccccc2)(c2ccccc2)c2ccccc2)cc1
inactive: dose: 2.5 mg/kg/injection, schedule: Q01DX009 (ip), vehicle: saline 113 % of control | dose: 5.0 mg/kg/injection, schedule: Q01DX001 (ip), vehicle: saline 101 % of control | dose: 5.0 mg/kg/injection, schedule: Q01DX009 (ip), vehicle: saline 118 % of control | dose: 10.0 mg/kg/injection, schedule: Q01DX001 (ip), vehicle: saline 95 % of control | dose: 10.0 mg/kg/injection, schedule: Q01DX009 (ip), vehicle: saline 102 % of control | dose: 20.0 mg/kg/injection, schedule: Q01DX001 (ip), vehicle: saline 117 % of control | dose: 40.0 mg/kg/injection, schedule: Q01DX001 (ip), vehicle: saline 117 % of control

CN(C(=O)c1cc([N+](=O)[O-])ccc1O)c1ccc([N+](=O)[O-])cc1
inactive: [6] 97 % of control | [8] 95 % of control | [10] 97 % of control

CN(C)CC(C)(C)CN1c2ccccc2Sc2ccccc21
inactive: dose: 3.12 mg/kg/injection, schedule: Q01DX009 (ip), vehicle: saline 90 % of control | dose: 6.25 mg/kg/injection, schedule: Q01DX009 (ip), vehicle: saline 103 % of control | dose: 12.5 mg/kg/injection, schedule: Q01DX009 (ip), vehicle: saline 101 % of control | dose: 25.0 mg/kg/injection, schedule: Q01DX009 (ip), vehicle: saline 97 % of control | dose: 25.0 mg/kg/injection, schedule: Q04DX003 (ip), vehicle: saline 101 % of control | [15] 106 % of control | dose: 50.0 mg/kg/injection, schedule: Q04DX003 (ip), vehicle: saline 91 % of control | [7] 100 % of control

Nc1ccc(CCCCc2ccccc2)cc1Cl
inactive: dose: 100.0 mg/kg/injection, schedule: Q04DX003 (ip), vehicle: saline with Tween-80 100 % of control | dose: 200.0 mg/kg/injection, schedule: Q04DX003 (ip), vehicle: saline with Tween-80 100 % of control

COc1ccc(OC)c(N=CC(=O)c2ccc(C)cc2)c1
inactive: dose: 75.0 mg/kg/injection, schedule: Q04DX003 (ip), vehicle: Klucel (hydroxypropylcellulose) (HPC) 95 % of control | dose: 150.0 mg/kg/injection, schedule: Q04DX003 (ip), vehicle: Klucel (hydroxypropylcellulose) (HPC) 94 % of control | dose: 300.0 mg/kg/injection, schedule: Q04DX003 (ip), vehicle: Klucel (hydroxypropylcellulose) (HPC) 97 % of control

Cc1ccc(S(=O)(=O)CC#CCOc2ccccc2)cc1
inactive: [15] 92 % of control | [6] 92 % of control | [7] 105 % of control | [8] 97 % of control | [9] 92 % of control | [10] 101 % of control

COc1cc(C)c2oc(C)nc2c1
inactive: [1] 92 % of control | [2] 92 % of control

COc1cccc[n+]1[O-]
inactive: [15] 94 % of control | [7] 101 % of control | [12] 96 % of control | [9] 89 % of control | [13] 92 % of control

COc1ccc(Cl)cc1NC(=O)Nc1ccc(F)c([N+](=O)[O-])c1
inactive: dose: 100.0 mg/kg/injection, schedule: Q01DX009 (ip), vehicle: Klucel (hydroxypropylcellulose) (HPC) 106 % of control | dose: 200.0 mg/kg/injection, schedule: Q01DX009 (ip), vehicle: Klucel (hydroxypropylcellulose) (HPC) 104 % of control | dose: 400.0 mg/kg/injection, schedule: Q01DX009 (ip), vehicle: Klucel (hydroxypropylcellulose) (HPC) 102 % of control

Cc1ccc(NC(C(=O)c2ccccc2)c2ccccc2)cc1 (stereo unspecified)
inactive: dose: 300.0 mg/kg/injection, schedule: Q01DX Z (ip), vehicle: carboxymethylcellulose (CMC) 97 % of control | dose: 450.0 mg/kg/injection, schedule: Q01DX Z (ip), vehicle: carboxymethylcellulose (CMC) 103 % of control | dose: 675.0 mg/kg/injection, schedule: Q01DX Z (ip), vehicle: carboxymethylcellulose (CMC) 107 % of control

O=C(Nc1ccccc1)OCC(OC(=O)Nc1ccccc1)C(COC(=O)Nc1ccccc1)OC(=O)Nc1ccccc1 (stereo unspecified)
inactive: dose: 25.0 mg/kg/injection, schedule: Q04DX002 (ip), vehicle: saline with Tween-80 100 % of control | dose: 50.0 mg/kg/injection, schedule: Q04DX002 (ip), vehicle: saline with Tween-80 100 % of control | dose: 100.0 mg/kg/injection, schedule: Q04DX002 (ip), vehicle: saline with Tween-80 92 % of control | dose: 400.0 mg/kg/injection, schedule: Q04DX002 (ip), vehicle: saline with Tween-80 88 % of control

O=C(O)c1ccc(NCO)cc1
inactive: dose: 100.0 mg/kg/injection, schedule: Q04DX003 (ip), vehicle: acetone 94 % of control | dose: 200.0 mg/kg/injection, schedule: Q04DX003 (ip), vehicle: acetone 102 % of control | dose: 400.0 mg/kg/injection, schedule: Q04DX003 (ip), vehicle: acetone 108 % of control

CCC(C(=O)O)c1ccccc1 (stereo unspecified)
inactive: [15] 93 % of control | [7] 97 % of control | [12] 89 % of control | [9] 90 % of control | [13] 90 % of control | [14] 95 % of control

c1ccc2c(c1)nc1n2CCC1
inactive: [3] 96 % of control | [4] 98 % of control | [5] 102 % of control

CC1C(C)(C)P(N)(=O)C1(C)C (stereo unspecified)
inactive: [12] 100 % of control | [13] 103 % of control | [14] 97 % of control
